Test results taken from US20260055088A1, “HETEROCYCLIC COMPOUND, METHOD FOR PREPARING SAME, AND PHARMACEUTICAL USE THEREOF” (Jiangsu Hengrui Pharmaceuticals Co., Ltd., priority 2022, published 2026).
Values after ≈ are worked out from the molar mass of the structure shown. Like-named read-outs stand apart in the source and are kept apart here.

Tests used:
[1] = molecular target: Nav1.8 ion channel stably expressed on HEK293 cells (Homo sapiens (Human), UniProt Q9Y5Y9); assay: Inhibitory activity against Nav1.8, manual patch clamp; format: cell-based; settings: resting protocol (-80 mV to 10 mV), 1 μM TTX, read-out: IC50 for the inhibition of Nav1.8 channel activity
Excerpt: The objective of the experiment was to investigate the effects of the compounds on the Nav1.8 ion channel in ex vivo experiments. The Nav1.8 ion channel is stably expressed on HEK293 cells. After the Nav1.8 current stabilized, the effects of the compounds on the Nav1.8 ion channel were obtained by comparing the magnitudes of the Nav1.8 currents before and after the compounds were applied.
• 1) A patch clamp amplifier: patch clamp PC-505B (WARNER instruments)/MultiClamp 700A (Axon instrument) • 2) A digital-to-analog converter: Digidata 1440A (Axon CNS)/Digidata 1550A (Axon instruments) • 3) A micromanipulator: MP-225 (SUTTER instrument) • 4) An inverted microscope: TL4 (Olympus) • 5) Glass micropipette puller: PC-10 (NARISHIGE) • 6) Microelectrode glass capillaries: B12024F (Wuhan VitalSense Scientific Instruments Co., Ltd.) • 7) Dimethyl sulfoxide (DMSO) D2650 (Sigma-Aldrich) • 8) TTX AF3014 (Affix Scientific)
The compounds for preparing the intracellular and extracellular fluids were purchased from Sigma (St. Louis, MO) except for the NaOH and KOH for the acid-base titrations. The extracellular fluid (mM) was: NaCl, 137; KCl, 4; CaCl2, 1.8; MgCl2, 1; HEPES, 10; glucose, 10; pH 7.4 (NaOH titration). The intracellular fluid (mM) was: aspartic acid, 140; MgCl2, 2; EGTA, 11; HEPES, 10; pH 7.2 (CsOH titration). All test and control compound solutions contained 1 μM TTX.
The test compounds were stored at a concentration of 9 mM in dimethyl sulfoxide (DMSO). On the testing day, the compounds were further dissolved in the extracellular fluid to prepare the required concentrations.
1) After the compounds were prepared into solutions with specified concentrations, the compound solutions were sequentially added to channels in ascending order according to their concentrations, and each channel was labeled.
2) A cell was transferred to the perfusion chamber. Positive pressure was applied inside the electrode, and the electrode tip was brought into contact with the cell. The three-way valve of the suction device was switched to the state where all three ways were open, and negative pressure was then applied to the electrode, allowing a high-resistance seal to form between the electrode and the cell. The application of negative pressure was continued to rupture the cell membrane, leading to the formation of a current pathway.
3) After the cell membrane rupture current stabilized, perfusion was performed with different concentrations in sequence. If the current remained stable for at least one minute, perfusion was performed with the next concentration.
4) The perfusion chamber was cleaned. The perfusion chamber was rinsed with the compound solutions in descending order according to their concentrations, with each concentration applied for 20 s. Finally, the perfusion chamber was rinsed with the extracellular fluid for 1 min.
The cell was clamped at −80 mV and then depolarized to 10 mV using a square wave lasting for 10 ms to obtain a Nav1.8 current. This procedure was repeated once every 5 seconds. The maximum current induced by the square wave was detected. After the current stabilized, perfusion was performed with the test compounds. After the reaction stabilized, the strength of the blocking was calculated.
The data were stored on a computer system and analyzed. Data acquisition and analysis were performed using pCLAMP 10 (Molecular Devices, Union City, CA), and the results were reviewed by a manager. “Current stabilized” means that the changes in current over time were within a limited range. The magnitude of the current after stabilization was used to calculate the effect of the compound at this […].
The inhibitory activity of the compounds of the present disclosure against Nav1.8 was determined through the above assay.

[2] = Solubility in FassIF and FessIF solutions; format: physicochemical; settings: thermodynamic from solid, 37° C.
Excerpt: Reagents: dimethyl sulfoxide (chromatographically pure, Sigma-Aldrich, Cat. No. 472301-4X4L), ethanol (chromatographically pure, CNW, Cat. No. 4.016362.4000), acetonitrile (chromatographically pure, FISHER, Cat. No. A998-4), NaH2PO4·2H2O (analytically pure, Sinopharm Chemical Reagent Co., Ltd., Cat. No. 20040717), ammonium acetate (chromatographically pure, ALADDIN, Cat. No. 17836-250G), FaSSIF/FeSSIF/FaSSGF powder (Biorelevant, Cat. No. FFF02), FaSSIF buffer concentrate (Biorelevant, Cat. No. FASBUF), FeSSIF buffer concentrate (Biorelevant, Cat. No. FESBUF), and ultrapure water (made in-house using an ELGA CHORUS laboratory water purification system).
Instrument: Agilent 1200 DAD liquid chromatograph (Agilent, U.S.)
FaSSIF solution: 2.0825 g of FaSSIF medium solution and 48.055 g of ultrapure water were weighed into a 50-mL beaker, and 0.112 g of FaSSIF/FeSSIF/FaSSGF powder was then added to the beaker. The mixture was stirred to dissolve the powder, and the solution was then equilibrated by standing for 2 h before use (the solution should be used within 48 h). […]
3.1. […] 10 μL of the stock solution (concentration 10 mM, dissolved in DMSO) was precisely measured out and well mixed with 990 μL of an organic solvent mixture (usually DMSO:acetonitrile:ethanol=1:1:1) in a 2-mL sample flask to form a 100 μM clear sample solution. […]

**Q.** For `COc1c([C@H]2[C@H](C(=O)Nc3ccnc(C(=N)N)c3)O[C@@](C)(C(F)(F)F)[C@H]2C)ccc(F)c1F` [Example 20, (2R,3S,4S,5R)—N-(2-Carbamimidoylpyridin-4-yl)-3-(3,4-difluoro-2-methoxyphenyl)-4,5-dimethyl-5-(trifluoromethyl)tetrahydrofuran-2-carboxamide], which IC50 [1] is on record?
**A.** 0.24 nM

**Q.** And the solubility at 24 h ([2]; FassIF solution, read-out: Solubility in FassIF solution)?
**A.** 308 µM (≈ 145 µg/mL)

**Q.** What about the solubility at 24 h ([2]; FessIF solution, read-out: Solubility in FessIF solution) of the same compound?
**A.** 2410 µM (≈ 1140 µg/mL)
